Results taken from patent US5624894A, “Brain-enhanced delivery of neuroactive peptides by sequential metabolism” (University of Florida, priority 1995, dated 1997).
Square brackets hold non-standard residues; d marks the D form. Ends that are not written are not given here. Peptide text beside a SMILES is read from it. * marks the point of attachment. X1 = C[n+]1cccc(C(=O)*)c1

Tests used:
[1] = Stability and water solubility observed during synthesis; assay type: physicochemical; conditions: reaction work-up
Protocol: In all cases before the N-alkylation step, the intermediates were purified by chromatography. In order to avoid side reactions, the N-methylations were performed at room temperature (20°-25° C.) with a slight excess of alkylating agent. The reductions with sodium dithionite were accomplished by cooling at 0°-5° C. in oxygen-free conditions at a pH of approximately 7. The quaternary salts are fairly stable when isolated, but the dihydropyridine derivatives are easily oxidized or hydroxylated and in acid conditions react readily with water.
Trigonellyl-Ala-Tyr-Arg-cholesteryl ester methylsulfate (0.09 g, […]) (30) was dissolved in 20 ml of H2 O, then NaHCO3 (0.05 g, […]) and Na2 S2 O4 (0.07 g, 0.04 mmol) were added in small portions while stirring at 0° C. The reaction vessel was stoppered under nitrogen and allowed to stir for 1.5 hours at 0° C. […] The extraction was repeated 3 times, the organic layers were combined and the solvent was removed in vacuo, to afford 0.056 g of compound (31), yield 62.2%.

[2] = system: opioid ([^3 H]diprenorphine-based competitive assay); assay: [3H]diprenorphine-based competitive assay; assay type: binding; conditions: read-out: 50 percent inhibitory concentration (IC50)
Excerpt: The test procedure is described hereinbelow following the EXAMPLES, and the results are shown in Tables 5-8 and FIGS. 3-5 for (A) where [SEQ. ID NO. 27] YAGFL is [D-Ala^2 ]-[D-Leu]-enkephalin; i.e., Compound (64) in the EXAMPLES. The targetor-peptide conjugates (C), such as compound (70), are weak opioids. The 50 percent inhibitory concentration (IC50) measured with [^3 H]diprenorphine-based competitive assay is about 10^-7 M, an order of magnitude less than the IC50 of about 10^-8 M for the enkephalin analogs. At the measured 500 to 700 pmol/g tissue concentration, even these weak opioids exert significant analgesic activity. The enkephalin analog may also be released slowly from the targetor-peptide conjugate in vivo, and contribute to the CNS activity. No analgesia was observed after the intravenous administration of the unmanipulated enkephalins, which are membrane-impermeable and unprotected toward various peptide-degrading enzymes, nor after the injection of the partially conjugated (either with the targetor or with cholesteryl) peptides. Modification of the spacer (S) function may allow for the peptidolytic release of the parent peptide from the conjugate at a desired rate, depending on the therapeutic objective.

[3] = Detection of peptide conjugates in rat brain tissue and blood by electrospray ionization MS after i.v. compound (A); assay type: in vivo; conditions: 15 minutes after i.v. compound (A) for [D-Ala2]-Leu-enkephalin, 20 mg/kg, rats; estimated
Excerpt: This approach has been evaluated by using electrospray ionization mass spectrometry, which provides the specificity necessary to monitor the biotransformation processes that occur after delivery. In vivo distribution studies with rats as experimental models (described in detail below) have shown that, upon systemic administration, the modified peptide can partition by passive, nonsaturable transport into the brain which is inaccessible to the unmanipulated compound. At this first step, the modified peptide simply enters the brain because of its lipoidal nature. The targetor moiety, however, undergoes an enzyme-mediated oxidation analogous to the endogenous NAD(P)H.revreaction.NAD(P)^+ coenzyme associated with numerous oxidoreductases and cellular respiration. […]
Detection of the peptide conjugates in the brain tissue by electrospray ionization mass spectrometry was carried out after systemic administration of compound (A). […] The solvent was removed under a dry nitrogen stream, and the reconstituted (in 50% methanol plus 50% water containing 3% acetic acid) sample was analyzed by electrospray ionization mass spectrometry at 5 μl/minute flow rate. […] Quantification was based on comparing the peak intensity to that obtained from the brain sample of an untreated animal spiked with a known amount of compound (C).

[4] = system: brain peptidases (rat brain homogenate); assay: Incubation of targetor-peptide conjugate in rat brain homogenate; assay type: in vitro ADME; conditions: 30 nmol in 1 ml 20% rat brain homogenate, pH 7.4 Tris, 37° C., 0.5 and 2 hours
Protocol: Compound (C) (30 nmol) was added to one ml rat brain homogenate (20%, w/w, in pH 7.4 Tris buffer), and the mixture was incubated at 37° C. Aliquots (250 t l) were removed 0.5 and 2 hours after incubation, and electrospray ionization mass spectra were obtained after sample preparation identical to that described above. Proteolytic cleavages are identified by the m/z of the products, and the corresponding structures are shown in the Scheme.

CC(C)CCC[C@@H](C)[C@H]1CC[C@H]2[C@@H]3CC=C4C[C@@H](OC(=O)[C@H](CCCNC(=N)N)NC(=O)[C@H](Cc5ccc(O)cc5)NC(=O)[C@H](C)NC(=O)C5=CN(C)C=CC5)CC[C@]4(C)[C@H]3CC[C@]12C [(31), 1,4-Dihydrotrigonellyl-Ala-Tyr-Arg-Cholesteryl Ester]
solubility in water (in words) [1]: not soluble in water

CC(C)C[C@@H](NC(=O)[C@H](Cc1ccccc1)NC(=O)CNC(=O)[C@@H](C)NC(=O)[C@H](Cc1ccc(O)cc1)NC(=O)[C@H](C)NC(=O)c1ccc[n+](C)c1)C(=O)O [(70), Trigonellyl-Ala-Tyr-D-Ala-Gly-Phe-D-Leu-OH Methylsulfate] (X1-AY[dA]GF[dL]-OH)
IC50 [2]: ~0.1 µM

Compound (C): locked-in targetor-peptide conjugate (m/z 760) of [D-Ala2]-Leu-enkephalin, formed from compound (B) by cleavage of the cholesteryl ester ({N‑methylnicotinoyl}-AY[dA]GFL; not fully specified)
level in brain tissue [3]: 500-700 picomole/g tissue | processing in rat brain homogenate (in words) [4]: processed by the brain peptidases similarly to the unmanipulated compound
